Measurements from patent US11866458B2, “Panaxadiol glycoside derivative and preparation method and application thereof” (SUZHOU JI ER BIOLOGICAL MEDICINE CO., LTD., priority 2018, dated 2024).
Marks after values point to notes of the source that are not given here.

What was measured:
[1] = after inhalation; cited from earlier work
[2] = tested on: mouse asthma model induced by OVA; assay: Asthma induced by ovalbumin in Balb/c mice: IgE level in serum by ELISA; format: in vivo; conditions: oral
[3] = tested on: inflammatory cells in bronchoalveolar lavage fluid of mice; assay: Determination of inflammatory cells in bronchoalveolar lavage fluid of mice (OVA asthma model); format: in vivo, BALB/C mice; design: unit not given here
Description: 144 6-week-old BALB/C mice (18-20 g) were divided into 24 groups: control group, placebo group, dexamethasone group (3 mg/kg) and the drug groups. There were 6 in each group. The control group was given normal saline without any treatment. The other groups were sensitized by intraperitoneal injection of OVA 20 μg and aluminum hydroxide 200 μL PBC (2 mg, prepared into emulsion). […] On day 21, 22 and 23, the therapeutic agent (i.e. 3 mg/kg dexamethasone in the positive control group and oral administration in the drug group) was given orally. From day 17 to 23, PBS was given to the control group and placebo group respectively, PBS (without OVA) was given to the control group. On day 0 and day 14, the normal saline was nebulized for 30 minutes to remove the aluminum hydroxide on day 21, 22 and 23 See in Table 2.

[4] = tested on: COPD rats induced by smoke exposure; assay: COPD induced by smoke exposure in rats: lung function FEV0.2/FVC; format: in vivo, Wistar rats; conditions: for FEV2/FVC % (FEV0.2/FVC %, forced expiratory index within 200 ms): 180 days; for effect in COPD rats compared with inhaled budesonide: high dose group, oral
ICR mice [5] = assay: Blood routine test after 6 days of intragastric administration; conditions: for WBC: 1 hour after last dose
Description: Mice were intragastric administration for 6 consecutive days, and sufficient blood samples were taken for blood routine test 1 hour after the last dose.

ICR mice [6] = assay: Blood glucose of caudal vein after 6 days of intragastric administration; conditions: for Blood glucose: fasted, caudal vein
Description: The mice were intragastric administration for 6 consecutive days, fasting was started at about 8:00 in the morning on the sixth day, and blood glucose in caudal vein was measured at about 4:00 in the next day.

[7] = Table 1-1 (1st time), 20 mg/kg, 24 hours after last OVA stimulation
[8] = 225 mg/kg, intragastric, 6 days
[9] = 3 mg/kg, oral (positive control)
[10] = 1.8 mg/kg, intragastric, 6 days

| SMILES | Concentration of IgE in serum [2, 7] | Concentration of IgE in serum ([2]; Table 1-2 (2nd time), 15 mg/kg) | Concentration of IgE in serum ([2]; Table 1-2 (2nd time), 30 mg/kg) | Concentration of IgE in serum ([2]; Table 1-2 (2nd time), 60 mg/kg) | Acidic cells in bronchoalveolar lavage fluid ([3]; 2 mg/kg, oral) | Neutral cells in bronchoalveolar lavage fluid ([3]; 2 mg/kg, oral) | Total inflammatory cells in bronchoalveolar lavage fluid ([3]; 2 mg/kg, oral) | lymphocyte in bronchoalveolar lavage fluid ([3]; 2 mg/kg, oral) | Acidic cells in bronchoalveolar lavage fluid ([3]; 20 mg/kg, oral) | Neutral cells in bronchoalveolar lavage fluid ([3]; 20 mg/kg, oral) | Total inflammatory cells in bronchoalveolar lavage fluid ([3]; 20 mg/kg, oral) | lymphocyte in bronchoalveolar lavage fluid ([3]; 20 mg/kg, oral) | Acidic cells in bronchoalveolar lavage fluid ([3]; 200 mg/kg, oral) | Neutral cells in bronchoalveolar lavage fluid ([3]; 200 mg/kg, oral) | Total inflammatory cells in bronchoalveolar lavage fluid ([3]; 200 mg/kg, oral) | lymphocyte in bronchoalveolar lavage fluid ([3]; 200 mg/kg, oral) | FEV2/FVC % (FEV0.2/FVC %, forced expiratory index within 200 ms) ([4]; 20 mg/kg oral) | FEV2/FVC % (FEV0.2/FVC %, forced expiratory index within 200 ms) ([4]; 40 mg/kg oral) | FEV2/FVC % (FEV0.2/FVC %, forced expiratory index within 200 ms) ([4]; 80 mg/kg oral) | effect in COPD rats compared with inhaled budesonide [4] | other results |
| --- | --- | --- | --- | --- | --- | --- | --- | --- | --- | --- | --- | --- | --- | --- | --- | --- | --- | --- | --- | --- | --- |
| CC(C)C(=O)OCC(=O)[C@@]12O[C@H](C3CCCCC3)O[C@@H]1C[C@H]1[C@@H]3CCC4=CC(=O)C=C[C@]4(C)[C@H]3[C@@H](O)C[C@@]12C [ciclesonide] |  |  |  |  |  |  |  |  |  |  |  |  |  |  |  |  |  |  |  |  | bioavailability in vivo [1]: less than 1% |
| CC(C)=CCC[C@](C)(O[C@H]1OC(CO)[C@@H](O)[C@H](O)C1O)C1CC[C@]2(C)C1C(=O)CC1[C@@]3(C)CC[C@H](O)C(C)(C)C3CC[C@]12C (stereo partly drawn) [ID, 3β-hydroxyl-20(S)—O-α-D-mannopyranosyl dammarane-24-ene-12-one] | 1336.96 ± 211.85 ng/mL | 1571.67 ± 134.04 ng/mL | 1427.83 ± 164.28 ng/mL | 1264.95 ± 127.60 ng/mL | 34.15 ± 18.88 | 13.18 ± 7.76 | 46.39 ± 22.74 | 14.38 ± 8.71 | 15.17 ± 8.34 | 6.26 ± 4.73 | 29.46 ± 13.56 | 8.92 ± 6.89 | 6.79 ± 3.87 | 4.39 ± 3.13 | 13.81 ± 6.76 | 4.16 ± 317 | 66.28 ± 13.54% | 75.23 ± 10.71 % | 86.34 ± 8.60 % | superior to budesonide | content of IgE in mice serum (conclusion in words) ([2]; model of mouse asthma induced by OVA, samples): significantly reduce; therapeutic effect on bronchial asthma induced by OVA ([2]; mouse): obvious therapeutic effect |
| CC(C)=CCC[C@](C)(O[C@@H]1O[C@H](CO)[C@@H](O)[C@H](O)[C@H]1O)[C@H]1CC[C@]2(C)[C@@H]1[C@H](O)C[C@@H]1[C@@]3(C)CC[C@H](O)C(C)(C)[C@@H]3CC[C@]12C [CK, ginsenoside compound K, reference compound] | 1701.85 ± 284.66 ng/mL | 1921.25 ± 160.12 ng/mL | 1676.69 ± 159.13 ng/mL | 1501.85 ± 110.68 ng/mL | 32.47 ± 20.33 | 15.24 ± 7.94 |  | 16.81 ± 9.88 | 16.39 ± 9.67 | 8.78 ± 5.33 | 24.87 ± 20.58 | 10.15 ± 7.34 | 13.12 ± 7.38 | 4.32 ± 3.16 | 22.38 ± 12.69 | 7.42 ± 4.53 | 61.29 ± 11.76% | 70.89 ± 10.56 % | 80.24 ± 13.73 % | superior to budesonide | Ba % (ICR mice [5]; [8]): 0.01 ± 0.02%; Eo % (ICR mice [5]; [8]): 0.75 ± 0.71%; Ly % (ICR mice [5]; [8]): 62.54 ± 30.29%; Mo % (ICR mice [5]; [8]): 6.01 ± 8.91%; Ne % (ICR mice [5]; [8]): 31.39 ± 2.72%; hematological related changes (ICR mice [5]; [8]): no hematological related changes; WBC (ICR mice [5]; [8]): 4.96 ± 2.14 10^2/mm^3; blood glucose related changes (ICR mice [6]; [8]): no blood glucose related changes; Blood glucose (ICR mice [6]; [8]): 3.18 ± 0.28 mmol/L |
| CC(=O)OCC(=O)[C@@]1(O)[C@H](C)C[C@H]2[C@@H]3CCC4=CC(=O)C=C[C@]4(C)[C@@]3(F)[C@@H](O)C[C@@]21C [Dexamethasone acetate tablets, Dexamethasone acetate] |  |  |  |  |  |  |  |  |  |  |  |  |  |  |  |  |  |  |  |  | Concentration of IgE in serum ([2]; Table 1-1 (1st time), 0.6 mg/kg, 24 hours after last OVA stimulation): 1131.05 ± 211.85 ng/mL; Concentration of IgE in serum ([2]; Table 1-2 (2nd time), 0.6 mg/kg): 1367.07 ± 103.80 ng/mL; Acidic cells in bronchoalveolar lavage fluid [3, 9]: 7.49 ± 5.25; Neutral cells in bronchoalveolar lavage fluid [3, 9]: 9.64 ± 5.16; Total inflammatory cells in bronchoalveolar lavage fluid [3, 9]: 36.12 ± 14.89; lymphocyte in bronchoalveolar lavage fluid [3, 9]: 8.46 ± 5.73; leukocyte count compared to blank control group (ICR mice [5]; 1.8 mg/kg): decreased significantly; lymphocyte percentage compared to blank control group (ICR mice [5]; 1.8 mg/kg): decreased significantly; monocyte percentage compared to blank control group (ICR mice [5]; 1.8 mg/kg): increased significantly; neutrophil percentage compared to blank control group (ICR mice [5]; 1.8 mg/kg): increased significantly; Ba % (ICR mice [5]; [10]): 0.04 ± 0.03%; Eo % (ICR mice [5]; [10]): 0.09 ± 0.02%; Ly % (ICR mice [5]; [10]): 42.59 ± 28.17 %; Mo % (ICR mice [5]; [10]): 12.08 ± 6.28 %; Ne % (ICR mice [5]; [10]): 45.17 ± 16.22 %; WBC (ICR mice [5]; [10]): 1.26 ± 0.49** 10^2/mm^3; blood glucose in mice compared with blank control group (ICR mice [6]; 1.8 mg/kg): increase blood glucose; Blood glucose (ICR mice [6]; [10]): 5.78 ± 0.36 mmol/L |
| CC(C)=CCC[C@](C)(O[C@@H]1OC(CO)[C@@H](O)[C@H](O)C1O)C1CC[C@]2(C)C1/C(=N\O)CC1[C@@]3(C)CC/C(=N\O)C(C)(C)C3CC[C@]12C (stereo partly drawn) [IVA, 20(S)—O-β-D-glucopyranosyl dammarane-3,12-hydroxyl imino-24-ene-12-one] | 1358.27 ± 248.70 ng/mL | 2026.13 ± 273.15 ng/mL | 1927.60 ± 151.61 ng/mL | 1723.86 ± 167.59 ng/mL | 29.09 ± 4.83 | 9.15 ± 5.68 |  | 15.35 ± 9.23 | 15.83 ± 2.88 | 7.38 ± 3.09 | 32.46 ± 17.21 | 5.24 ± 3.34 | 4.45 ± 2.14 | 6.17 ± 4.09 | 14.69 ± 5.77 | 4.19 ± 3.48 | 66.25 ± 11.49% | 75.98 ± 9.26 % | 88.33 ± 12.49 % | superior to budesonide |  |
| CC(C)=CCC[C@](C)(O[C@@H]1OC(CO)[C@H](O)[C@H](O)C1O)C1CC[C@]2(C)C1C(=O)CC1[C@@]3(C)CC[C@H](O)C(C)(C)C3CC[C@]12C (stereo partly drawn) [IC, 3p-hydroxyl-20(S)—O-β-D-galactopyranosyl dammarane-24-ene-12-one] | 975.82 ± 260.32 ng/mL | 1908.70 ± 221.74 ng/mL | 1738.93 ± 124.22 ng/mL | 1575.92 ± 148.33 ng/mL | 31.51 ± 16.14 | 13.29 ± 7.12 | 50.77 ± 32.49 | 9.30 ± 6.85 | 18.44 ± 7.78 | 8.16 ± 5.03 | 32.95 ± 21.07 | 6.49 ± 5.28 | 8.72 ± 3.31 | 5.17 ± 3.19 | 18.25 ± 9.48 | 3.77 ± 2.81 | 65.45 ± 14.17% | 76.64 ± 7.98 % | 83.15 ± 8.42 % | superior to budesonide |  |
